Test results reported in patent US20170143674A1, “Use of Glutaryl Histamine for the Treatment of Respiratory Tract Diseases” (LTD "VALENTA-INTELLEKT", priority 2011, published 2017).
Marks after values point to notes of the source that are not given here.

Assays:
LPS-induced tonsillitis = LPS-induced tonsillitis model (E. coli LPS into cervical lymph node); type: in vivo; settings: for Area of germinal centers of lymphoid follicles in affected lymph nodes / TP (blood total protein) / Weight difference between affected and intact lymph nodes: M ± m
Experimental: This example is aimed at evaluating the activity of glutaryl histamine on experimental model of tonsillitis. LPS-induced tonsillitis is one of the most adequate models for the study of the pathogenesis, pathomorphological changes and action of pharmacological medicaments on the course of this disease.
Tonsillitis was induced under anesthesia by administration of a solution of E. coli lipopolysaccharide (LPS) (Sigma) in normal physiological solution in a dose of 20 μg/kg, by 10 μl to the right upper lymph node (Inn. Cervicales superficiales). After administration, the lymph nodes were put under superficial neck muscles and then the skin was stitched. The wound was treated with streptocide. The animal was placed into a post-operation cage.
The tested medicament was administered once daily in a given dose strictly at the stated time for three days before the induction of tonsillitis and 10 days after. Normal saline solution was used as placebo.
Immediately after euthanasia, the animals were subjected to necropsy, the affected and intact lymph nodes were removed and weighed.
The lymph nodes derived from the half of animals from each group were being frozen after removal in a refrigerating chamber at −25° C. for 72 hours. Then the lymph nodes were lyophilized.
In a half of animals from each group (7), the affected lymph nodes were subjected to histological analysis. After euthanasia, intact and affected lymph nodes were removed from each animal. […] Sections with a thickness of 4 to 6 μm were prepared from the paraffin blocks, stained with hematoxylin and eosin to reveal typical pathological processes and study required parameters using light-optical microscope Leica DM LS (magnification 200× and 400×).
Weights of intact and affected lymph nodes were compared and the nodes also were lyophilized to evaluate an effect of the medicaments on the swelling degree and adequacy of the model of tonsillitis.
The protein-synthetic function of the liver and a systemic effect of the medicaments on organism were evaluated in total protein (TP) analysis.

[1] = system: Staphylococcus aureus (mouse-adapted MRSA strain 5); assay: animal or person; type: in vivo, mice
Experimental: Tested medicament was glutaryl histamine in doses of 15, 30 and 45 mg/kg. Solutions of the tested medicament for oral administration were prepared ex tempore in stream water. Ampicillin (in intravenous administration) was used as a therapeutic preparation since it is the most experimentally studied antibiotic approved in clinical practice many years ago. Levofloxacin was used as a positive control (in oral administration).
Staphylococcus aureus was used as an infectious agent (mouse-adapted MRSA strain 5, collection from GU NIINA im.G.F. Gauze RAMN).
Firstly, there was determined a lethal dose (LD100) of staphylococcus when intravenously administered to this line of mice with a certain weight. Fatal cases among mice were registered every day for ten days. […] After that, there was determined the dose of ampicillin providing a survival rate of 20% of mice infected with staphylococcus MRSA taken in a lethal dose. For this purpose, mice were housed into cages by 10 animals and infected with a lethal dose of staphylococcus. One hour later, each mouse was intravenously administered ampicillin in doses of 30, 60, 90, 120, 150, and 180 mg/kg. A group of mice infected with a lethal dose of staphylococcus without the treatment was considered as a control group. Fatal cases among mice were registered every day for ten days.
The next step of the experiment was to study an effect of combined administration of glutaryl histamine with ampicilline on a model of MRSA-induced staphylococcal sepsis in mice.
In the experiment, the mice were housed in following groups of 10 animals per cage: […]

[2] = group 2: ampicillin 120 mg/ml i.v. one time

O=C(O)CCCC(=O)NCCc1c[nH]cn1 [glutaryl histamine]
0.066 ± 0.007* mm^2: Area of germinal centers of lymphoid follicles in affected lymph nodes (LPS-induced tonsillitis; Glutaryl histamine 45 mg/kg)
0.067 ± 0.006* mm^2: Area of germinal centers of lymphoid follicles in affected lymph nodes (LPS-induced tonsillitis; Glutaryl histamine 9 mg/kg)
0.048 ± 0.003** mm^2: Area of germinal centers of lymphoid follicles in affected lymph nodes (LPS-induced tonsillitis; Glutaryl histamine 27 mg/kg)
0/14: The number of died animals/initial number of animals in a group (LPS-induced tonsillitis; Glutaryl histamine 9 mg/kg) | The number of died animals/initial number of animals in a group (LPS-induced tonsillitis; Glutaryl histamine 27 mg/kg)
13.0 ± 1.3 mg: Weight difference between affected and intact lymph nodes (LPS-induced tonsillitis; Glutaryl histamine 9 mg/kg)
8.8 ± 1.1* ** mg: Weight difference between affected and intact lymph nodes (LPS-induced tonsillitis; Glutaryl histamine 27 mg/kg)
65.1 ± 0.8* ** g/l: TP (blood total protein) (LPS-induced tonsillitis; Glutaryl histamine 45 mg/kg)
65.0 ± 0.6* ** g/l: TP (blood total protein) (LPS-induced tonsillitis; Glutaryl histamine 27 mg/kg)
67.2 ± 1.1 g/L: TP (blood total protein) (LPS-induced tonsillitis; Glutaryl histamine 9 mg/kg)
0%: Mortality rate (%) (LPS-induced tonsillitis; Glutaryl histamine 9 mg/kg) | Mortality rate (%) (LPS-induced tonsillitis; Glutaryl histamine 27 mg/kg)

CC1(C)S[C@@H]2[C@H](NC(=O)[C@H](N)c3ccccc3)C(=O)N2[C@H]1C(=O)O [ampicillin]
8/2: died/survived animals ([1]; day 5, ampicillin 30 mg/kg + LD100 St.a.) | died/survived animals ([1]; day 6, ampicillin 60 mg/kg + LD100 St.a.) | died/survived animals ([1]; day 7, ampicillin 90 mg/kg + LD100 St.a.) | died/survived animals ([1]; day 7, ampicillin 120 mg/kg + LD100 St.a.) | died/survived animals ([1]; day 8, ampicillin 120 mg/kg + LD100 St.a.) | died/survived animals ([1]; day 8, ampicillin 150 mg/kg + LD100 St.a.) | died/survived animals ([1]; day 9, ampicillin 120 mg/kg + LD100 St.a.) | died/survived animals ([1]; day 9, ampicillin 150 mg/kg + LD100 St.a.) | died/survived animals ([1]; day 9, ampicillin 180 mg/kg + LD100 St.a.) | died/survived animals ([1]; day 9, group 2: ampicillin 120 mg/ml i.v. one time) | died/survived animals ([1]; day 10, ampicillin 120 mg/kg + LD100 St.a.) | died/survived animals ([1]; day 10, ampicillin 150 mg/kg + LD100 St.a.) | died/survived animals ([1]; day 10, ampicillin 180 mg/kg + LD100 St.a.) | died/survived animals ([1]; day 10, group 2: ampicillin 120 mg/ml i.v. one time)
10%: Survival rate (%) ([1]; ampicillin 90 mg/kg + LD100 St.a., day 10)
20%: Survival rate (%) ([1]; ampicillin 120 mg/kg + LD100 St.a., day 10) | Survival rate (%) ([1]; ampicillin 150 mg/kg + LD100 St.a., day 10) | Survival rate (%) ([1]; ampicillin 180 mg/kg + LD100 St.a., day 10) | Survival rate (%) [1, 2]
6/4: died/survived animals ([1]; day 4, ampicillin 30 mg/kg + LD100 St.a.) | died/survived animals ([1]; day 5, ampicillin 60 mg/kg + LD100 St.a.) | died/survived animals ([1]; day 5, ampicillin 120 mg/kg + LD100 St.a.) | died/survived animals ([1]; day 6, ampicillin 180 mg/kg + LD100 St.a.) | died/survived animals ([1]; day 7, group 2: ampicillin 120 mg/ml i.v. one time)
9/1: died/survived animals ([1]; day 6, ampicillin 30 mg/kg + LD100 St.a.) | died/survived animals ([1]; day 7, ampicillin 60 mg/kg + LD100 St.a.) | died/survived animals ([1]; day 8, ampicillin 90 mg/kg + LD100 St.a.) | died/survived animals ([1]; day 9, ampicillin 90 mg/kg + LD100 St.a.) | died/survived animals ([1]; day 10, ampicillin 90 mg/kg + LD100 St.a.)
3/7: died/survived animals ([1]; day 3, ampicillin 30 mg/kg + LD100 St.a.) | died/survived animals ([1]; day 4, ampicillin 90 mg/kg + LD100 St.a.) | died/survived animals ([1]; day 4, ampicillin 150 mg/kg + LD100 St.a.) | died/survived animals ([1]; day 5, group 2: ampicillin 120 mg/ml i.v. one time)
0%: Survival rate (%) ([1]; ampicillin 30 mg/kg + LD100 St.a., day 10) | Survival rate (%) ([1]; ampicillin 60 mg/kg + LD100 St.a., day 10)
2/8: died/survived animals ([1]; day 3, ampicillin 60 mg/kg + LD100 St.a.) | died/survived animals ([1]; day 4, ampicillin 180 mg/kg + LD100 St.a.) | died/survived animals ([1]; day 4, group 2: ampicillin 120 mg/ml i.v. one time)
7/3: died/survived animals ([1]; day 6, ampicillin 90 mg/kg + LD100 St.a.) | died/survived animals ([1]; day 6, ampicillin 120 mg/kg + LD100 St.a.) | died/survived animals ([1]; day 6, ampicillin 150 mg/kg + LD100 St.a.) | died/survived animals ([1]; day 7, ampicillin 150 mg/kg + LD100 St.a.) | died/survived animals ([1]; day 7, ampicillin 180 mg/kg + LD100 St.a.) | died/survived animals ([1]; day 8, ampicillin 180 mg/kg + LD100 St.a.) | died/survived animals ([1]; day 8, group 2: ampicillin 120 mg/ml i.v. one time)
0/10: died/survived animals ([1]; day 1, ampicillin 30 mg/kg + LD100 St.a.) | died/survived animals ([1]; day 1, ampicillin 60 mg/kg + LD100 St.a.) | died/survived animals ([1]; day 1, ampicillin 90 mg/kg + LD100 St.a.) | died/survived animals ([1]; day 1, ampicillin 120 mg/kg + LD100 St.a.) | died/survived animals ([1]; day 1, ampicillin 150 mg/kg + LD100 St.a.) | died/survived animals ([1]; day 1, ampicillin 180 mg/kg + LD100 St.a.) | died/survived animals ([1]; day 1, group 2: ampicillin 120 mg/ml i.v. one time) | died/survived animals ([1]; day 2, ampicillin 60 mg/kg + LD100 St.a.) | died/survived animals ([1]; day 2, ampicillin 90 mg/kg + LD100 St.a.) | died/survived animals ([1]; day 2, ampicillin 120 mg/kg + LD100 St.a.) | died/survived animals ([1]; day 2, ampicillin 150 mg/kg + LD100 St.a.) | died/survived animals ([1]; day 2, ampicillin 180 mg/kg + LD100 St.a.) | died/survived animals ([1]; day 2, group 2: ampicillin 120 mg/ml i.v. one time) | died/survived animals ([1]; day 3, ampicillin 150 mg/kg + LD100 St.a.) | died/survived animals ([1]; day 3, ampicillin 180 mg/kg + LD100 St.a.)
4/6: died/survived animals ([1]; day 4, ampicillin 60 mg/kg + LD100 St.a.) | died/survived animals ([1]; day 4, ampicillin 120 mg/kg + LD100 St.a.) | died/survived animals ([1]; day 5, ampicillin 180 mg/kg + LD100 St.a.)
5/5: died/survived animals ([1]; day 5, ampicillin 90 mg/kg + LD100 St.a.) | died/survived animals ([1]; day 5, ampicillin 150 mg/kg + LD100 St.a.) | died/survived animals ([1]; day 6, group 2: ampicillin 120 mg/ml i.v. one time)
1/9: died/survived animals ([1]; day 2, ampicillin 30 mg/kg + LD100 St.a.) | died/survived animals ([1]; day 3, ampicillin 90 mg/kg + LD100 St.a.) | died/survived animals ([1]; day 3, ampicillin 120 mg/kg + LD100 St.a.) | died/survived animals ([1]; day 3, group 2: ampicillin 120 mg/ml i.v. one time)
10/0: died/survived animals ([1]; day 7, ampicillin 30 mg/kg + LD100 St.a.) | died/survived animals ([1]; day 8, ampicillin 30 mg/kg + LD100 St.a.) | died/survived animals ([1]; day 8, ampicillin 60 mg/kg + LD100 St.a.) | died/survived animals ([1]; day 9, ampicillin 30 mg/kg + LD100 St.a.) | died/survived animals ([1]; day 9, ampicillin 60 mg/kg + LD100 St.a.) | died/survived animals ([1]; day 10, ampicillin 30 mg/kg + LD100 St.a.) | died/survived animals ([1]; day 10, ampicillin 60 mg/kg + LD100 St.a.)
80%: Mortality rate (%) [1, 2]
